From patent publication US20240327415A1, “Multicomponent Complexes, Including Salts, Crystalline Forms, and Hydrates and Solvates of ENT1 Inhibitors” (iTeos Belgium SA, priority 2023, published 2024)
Structures can show the parent of a compound that is named as a salt.

Test: solid form screen of Compound 1 di(hydrogen sulfate), XRPD damp and dried (Example 1)
Type: physicochemical
Protocol: Example 1—Solid Form Screen of Compound 1 Di(Hydrogen Sulfate): Amorphous Compound 1 di(hydrogen sulfate) (made in accordance with Example 7) was prepared and then subject to various crystallization techniques—temperature cycling, evaporation, crash cooling, solvent drop grinding, anti-solvent addition—each of which is described in more detail below. In addition, a reactive crystallization experiment was also conducted on Compound 1, which is a free base.
Temperature Cycling: Approximately 20 mg of Amorphous Compound 1 di(hydrogen sulfate) was added to 24×1.5 mL screw cap vials. Into each vial, the appropriate solvent system was added in 50 μL aliquots in an attempt to form slurries at 40° C. When the addition was completed, the samples were temperature-cycled between 40° C. and 5° C., using 0.1° C./min ramp and 1 hr hold between steps. After about 24 hours of cycling, anti-solvent addition at 40° C. was carried out on samples that were clear solutions. Temperature cycling was continued for all samples for a total of 48 hours. After 48 hours of cycling, any solids present in the samples were isolated via centrifugation and analyzed damp by XRPD to assess the polymorphic form.
Evaporation: Solutions of Amorphous Compound 1 di(hydrogen sulfate) were prepared in different solvent systems. […] The solutions were then left open to allow the solvents to evaporate at ambient. Solids observed post-evaporation were analyzed by XRPD.
Crash Cooling: Solutions of Amorphous Compound 1 di(hydrogen sulfate) were prepared in different solvent systems. […] The solutions were placed in a refrigerator to crash-cool the samples to about 5° C. for 48 hours. Solids observed at this point were analyzed by XRPD. The rest of the samples where no solids were observed were placed in a freezer to allow the samples to crash-cool further to about −20° C. After about 48 hours in the freezer, samples with solids were analyzed by XRPD. For samples where solids were still not observed, anti-solvent addition was carried out at 5° C., and the samples returned to the freezer. After 4 days in the freezer post-ASA, any solids present were analyzed by XRPD.
Solvent Drop Grinding: 15-20 mg of Amorphous Compound 1 di(hydrogen sulfate) was added to 24×2 mL bead mill tubes. Into each tube, 5 μL of the appropriate solvent system was added at ambient. Two small stainless-steel beads were placed in each tube, and the samples were milled using the following program: (1) Speed=5000 rpm; (2) Cycle=10×90 s; (3) Pause=10 s; (4) Repeat=duplicate. For samples where dissolution was suspected during the milling, additional amorphous material was added, and the milling program repeated. When the milling program was completed, the residual solids were analyzed by XRPD.
Anti-solvent Addition: 20-25 mg of Amorphous Compound 1 di(hydrogen sulfate) was added to 24×1.5 mL screw cap vials. Into each vial, 100 μL of the appropriate solvent system was added at 25° C. to form solutions. Where complete dissolution was not observed, an additional 400 μL of solvent was added and the samples were stirred at 50° C. to allow further dissolution. The mother liquors of these samples were needle-filtered into a new set of vials. To all the solutions, anti-solvent addition was carried out at 25° C. Where sufficient precipitation was observed post-ASA, these were isolated and analyzed by XRPD. Where thin slurries or clear solutions were observed post-ASA, these were cooled to 5° C. at 0.1° C./min and stirred at 5° C. for ca 18 h. Any solids present were isolated and analyzed by XRPD.
Reactive Crystallization: 15-20 mg of Compound 1 was added to 18×1.5 mL screw cap vials. Into each vial, 100 μL of the appropriate solvent system was added at 40° C. 2.05 mole equiv. of H2SO4 was also added to the vials as solutions in 100 μL of the respective solvent systems. The samples were stirred at 40° C. for another approximately 30 mins, cooled to 5° C. at 0.1° C./min and left stirring at 5° C. for about 18 h. […]

Structure (SMILES): COc1cc(C(=O)O[C@@H]2CCCOc3cc(cc(OC)c3OC)C(=O)NCCCN3CCCN(CC2)CC3)cc(OC)c1OC [Compound 1 di(hydrogen sulfate)]
- XRPD (Damp) Evaporation (1,4-Dioxane): 2, PC
- XRPD (Damp) Temp cycling (1,4-Dioxane): 2, PC
- XRPD (Dried) Anti-solvent addition (1,4-Dioxane): Am
- XRPD (Dried) Evaporation (1,4-Dioxane): 2, PC
- XRPD (Dried) Solvent drop grinding (1,4-Dioxane): Am
- XRPD (Dried) Temp cycling (1,4-Dioxane): 2, PC
- XRPD (Damp) Anti-solvent addition (1-Propanol): 2, PC
- XRPD (Damp) Solvent drop grinding (1-Propanol): 2, PC
- XRPD (Dried) Anti-solvent addition (1-Propanol): 2, PC
- XRPD (Dried) Temp cycling (1-Propanol): Am
- XRPD (Damp) Evaporation (2-Methyl THF): 2, PC
- XRPD (Dried) Anti-solvent addition (2-Methyl THF): Am
- XRPD (Dried) Evaporation (2-Methyl THF): 2, PC
- XRPD (Dried) Solvent drop grinding (2-Methyl THF): Am
- XRPD (Dried) Temp cycling (2-Methyl THF): Am
- XRPD (Damp) Evaporation (2-Propanol): 2, PC
- XRPD (Dried) Anti-solvent addition (2-Propanol): Am
- XRPD (Dried) Reactive cryst. (2-Propanol): Am
- XRPD (Dried) Temp cycling (2-Propanol): Am
- XRPD (Damp) Evaporation (2-propanol:water (50:50% v/v)): 2, PC
- XRPD (Dried) Evaporation (2-propanol:water (50:50% v/v)): 2, PC
- XRPD (Damp) Crash cooling (2-propanol:water (75:25% v/v)): 2, PO
- XRPD (Damp) Reactive cryst. (2-propanol:water (75:25% v/v)): 2, PC
- XRPD (Dried) Crash cooling (2-propanol:water (75:25% v/v)): 2, PO
- XRPD (Damp) Evaporation (Acetone): 2, PC
- XRPD (Damp) Temp cycling (Acetone): 2, PC
- XRPD (Dried) Anti-solvent addition (Acetone): Am
- XRPD (Dried) Evaporation (Acetone): 2, PC
- XRPD (Dried) Solvent drop grinding (Acetone): Am
- XRPD (Dried) Temp cycling (Acetone): 2, PC
- XRPD (Damp) Evaporation (Acetonitrile): 6, PC
- XRPD (Dried) Evaporation (Acetonitrile): 6+, PC
- XRPD (Dried) Solvent drop grinding (DCM): Am
- XRPD (Dried) Anti-solvent addition (DMF): Am
- XRPD (Dried) Solvent drop grinding (DMF): Am
- XRPD (Dried) Anti-solvent addition (DMSO): Am
- XRPD (Dried) Solvent drop grinding (DMSO): Am
- XRPD (Dried) Evaporation (Ethanol:water (90:10% v/v)): 2, PC
- XRPD (Dried) Reactive cryst. (Ethyl Acetate): Am
- XRPD (Dried) Solvent drop grinding (Ethyl Acetate): Am
- XRPD (Dried) Temp cycling (Ethyl Acetate): Am
- XRPD (Dried) Solvent drop grinding (Isopropyl Acetate): Am
- XRPD (Dried) Temp cycling (Isopropyl Acetate): Am
- XRPD (Damp) Temp cycling (MEK): 2, PC
- XRPD (Dried) Solvent drop grinding (MEK): Am
- XRPD (Dried) Temp cycling (MEK): 2, PC
- XRPD (Damp) Solvent drop grinding (Methanol): 2, PC
- XRPD (Dried) Reactive cryst. (Methanol): Am
- XRPD (Dried) Solvent drop grinding (Methanol): 2, PC
- XRPD (Dried) Temp cycling (Methanol): Am
- XRPD (Dried) Reactive cryst. (MiBK): Am
- XRPD (Dried) Solvent drop grinding (MiBK): Am
- XRPD (Dried) Temp cycling (MiBK): Am
- XRPD (Damp) Evaporation (THF): 2, PC
- XRPD (Dried) Evaporation (THF): 2, PC
- XRPD (Dried) Solvent drop grinding (THF): Am
- XRPD (Dried) Solvent drop grinding (Toluene): Am
- XRPD (Dried) Temp cycling (Toluene): Am
